Bridge positions count the residues as written; N and C are the ends. Square brackets hold non-standard residues; d marks the D form. Peptide text beside a SMILES is read from it. * marks the point of attachment. ξ: configuration not given here. Phe(4-COOH) = N[C@@H](Cc1ccc(C(=O)O)cc1)C(=O)O; Phe(4-CH2NH2) = NCc1ccc(C[C@H](N)C(=O)O)cc1; Bip = N[C@@H](Cc1ccc(-c2ccccc2)cc1)C(=O)O; Phe(3-Me) = Cc1cccc(C[C@H](N)C(=O)O)c1; Cyclopropanecarbonyl = O=C(C1CC1)*; Lys(Me2) = CN(C)CCCC[C@H](N)C(=O)O; Val(3-OH) = CC(C)(O)[C@H](N)C(=O)O; mTyr = N[C@@H](Cc1cccc(O)c1)C(=O)O; 4Pal = N[C@@H](Cc1ccncc1)C(=O)O; Cha = N[C@@H](CC1CCCCC1)C(=O)O; Cit = NC(=O)NCCC[C@H](N)C(=O)O; Ile(3ξ) = CCC(C)[C@H](N)C(=O)O; Thr(3ξ) = CC(O)[C@H](N)C(=O)O; ξCha = NC(CC1CCCCC1)C(=O)O; Carboxymethyl = O=C(O)C*; NMeA = CN[C@@H](C)C(=O)O; Nle = CCCC[C@H](N)C(=O)O; Orn = NCCC[C@H](N)C(=O)O; Dab = NCC[C@H](N)C(=O)O; Dap = NC[C@H](N)C(=O)O; ξC = NC(CS)C(=O)O

The values that follow come from patent US20240409585A1, “MACROCYCLIC IMMUNOMODULATORS” (priority 2021, published 2024).

T1 sequence (Q15116 25-288): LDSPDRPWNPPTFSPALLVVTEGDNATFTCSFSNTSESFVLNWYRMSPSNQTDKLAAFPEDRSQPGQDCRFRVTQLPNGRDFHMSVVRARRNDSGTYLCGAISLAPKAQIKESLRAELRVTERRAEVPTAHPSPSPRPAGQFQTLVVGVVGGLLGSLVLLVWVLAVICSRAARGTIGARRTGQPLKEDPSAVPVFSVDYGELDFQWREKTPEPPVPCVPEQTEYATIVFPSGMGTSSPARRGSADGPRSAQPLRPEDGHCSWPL

This assay concerns the target T1, PE-labeled human PD-L1-Ig binding to Jurkat cell line over-expressing human PD-1 (Jurkat-PD-1) (Homo sapiens, UniProt Q15116).
T1 construct: expressed in transfected cells; host or cells: Jurkat
The assay can be described thus: Jurkat-PD-1 Cell Binding High-Content Screening Assay (CBA): Method 1. Particulars: Jurkat-hPD-1 cells, PE-labeled PD-L1-Ig 20 nM final; read-out: Jurkat HPDL1 PD1 IC50 (uM) (Method 1).
In general, IC50 refers to the point on the concentration scale where inhibition reaches its midpoint. Turning to `CC(C)C[C@@H]1NC(=O)[C@H](Cc2c[nH]c3ccccc23)NC(=O)[C@H](CC(=O)O)NC(=O)[C@H](Cc2ccc(OCC(=O)O)cc2)NC(=O)[C@H](Cc2ccccc2)NC(=O)CSC[C@@H](C(=O)N[C@@H](C)C(N)=O)NC(=O)[C@H](CO)NC(=O)[C@H](C(C)C)NC(=O)[C@H](CC(C)C)NC(=O)[C@H](CC(N)=O)NC(=O)[C@@H](CC(C)C)NC(=O)[C@H](C)N(C)C(=O)[C@H](CCCCN)NC(=O)[C@H](Cc2ccc(-c3ccccc3)cc2)NC1=O` [Compound 2030] ({CH2CO}-FY(Carboxymethyl)DWL[Bip]K[NMeA][dL]NLVSCA-NH2; thioether N-14), the IC50 stood at 0.03 µM.
As to `CC(C)C[C@@H]1NC(=O)[C@H](CCN)NC(=O)[C@@H](CC(C)C)NC(=O)[C@H](C)N(C)C(=O)[C@H](CCCNC(=N)N)NC(=O)[C@H](Cc2ccc(-c3ccccc3)cc2)NC(=O)[C@H](C(C)C)NC(=O)[C@H](Cc2c[nH]c3ccccc23)NC(=O)[C@H](CC(=O)O)NC(=O)[C@H](Cc2ccc(O)cc2)NC(=O)[C@H](CN)NC(=O)CSC[C@@H](C(=O)N[C@@H](C)C(N)=O)NC(=O)[C@H]([C@@H](C)O)NC(=O)[C@H](C(C)C)NC1=O` [Compound 1350] ({CH2CO}-[Dap]YDWV[Bip]R[NMeA][dL][Dab]LVTCA-NH2; thioether N-14), the IC50 worked out at 0.03 µM.
On to `CSCC[C@H]1NC(=O)[C@H](C)N(C)C(=O)[C@H](CCCNC(=N)N)NC(=O)[C@H](Cc2ccc(-c3ccccc3)cc2)NC(=O)[C@H](C(C)C)NC(=O)[C@H](Cc2c[nH]c3ccccc23)NC(=O)[C@H](CC(=O)O)NC(=O)[C@H](Cc2ccc(O)cc2)NC(=O)[C@H](Cc2ccccc2)NC(=O)CSC[C@@H](C(=O)N[C@@H](C)C(N)=O)NC(=O)[C@H]([C@@H](C)O)NC(=O)[C@H](C(C)C)NC(=O)[C@H](CC(C)C)NC(=O)[C@H](CCCNC(=N)N)NC1=O` [Compound 1062] ({CH2CO}-FYDWV[Bip]R[NMeA][dM]RLVTCA-NH2; thioether N-14), for which the IC50 turned out to be 0.15 µM.
On to `CCC(C)[C@@H]1NC(=O)[C@H](Cc2ccc(-c3ccccc3)cc2)NC(=O)[C@H](C(C)C)NC(=O)[C@H](Cc2cccc(C)c2)NC(=O)[C@H](CC(=O)O)NC(=O)[C@H](Cc2ccc(OCC(=O)O)cc2)NC(=O)[C@H](CCCCN(C)C)NC(=O)CSCC(C(=O)NCC(N)=O)NC(=O)[C@H](CO)NC(=O)[C@H](C(C)C)NC(=O)[C@H](CC(C)C)NC(=O)[C@H](CC(N)=O)NC(=O)[C@@H](CC(C)C)NC(=O)[C@H](C)N(C)C1=O` (stereo partly drawn) [Compound 2063] ({CH2CO}-[Lys(Me2)]Y(Carboxymethyl)D[Phe(3-Me)]V[Bip][Ile(3ξ)][NMeA][dL]NLVS[ξC]G-NH2; thioether N-14), for which the IC50 worked out at 0.05 µM.
As to `Cc1cccc(C[C@@H]2NC(=O)[C@H](CC(=O)O)NC(=O)[C@H](Cc3ccc(OCC(=O)O)cc3)NC(=O)[C@H](CCCNC(=O)C3CC3)NC(=O)CSC[C@@H](C(=O)N[C@@H](CO)C(N)=O)NC(=O)[C@H](CO)NC(=O)[C@H](C(C)O)NC(=O)C(CC3CCCCC3)NC(=O)[C@H](CCCNC(=N)N)NC(=O)[C@@H](CC(C)C)NC(=O)[C@H](C)N(C)C(=O)[C@H](CCCNC(N)=O)NC(=O)[C@H](Cc3ccc(-c4ccccc4)cc3)NC(=O)[C@H](C(C)C)NC2=O)c1` (stereo partly drawn) [Compound 2113] ({CH2CO}-[Orn](Cyclopropanecarbonyl)Y(Carboxymethyl)D[Phe(3-Me)]V[Bip][Cit][NMeA][dL]R[ξCha][Thr(3ξ)]SCS-NH2; thioether N-14), the IC50 came to 0.02 µM.
Turning to `CC(C)C[C@@H]1NC(=O)[C@H](Cc2c[nH]c3ccccc23)NC(=O)[C@H](CC(=O)O)NC(=O)[C@H](Cc2ccc(O)cc2)NC(=O)[C@H](Cc2ccccc2)NC(=O)CSC[C@@H](C(=O)N[C@@H](C)C(N)=O)NC(=O)[C@H](CO)NC(=O)[C@H](C(C)C)NC(=O)[C@H](CC(C)C)NC(=O)[C@H](CC(N)=O)NC(=O)[C@@H](Cc2ccccc2)NC(=O)[C@H](C)N(C)C(=O)[C@H](C(C)C)NC(=O)[C@H](Cc2ccc(-c3ccccc3)cc2)NC1=O` [Compound 1783] ({CH2CO}-FYDWL[Bip]V[NMeA][dF]NLVSCA-NH2; thioether N-14), the IC50 is 0.09 µM.
In the case of `CC(C)C[C@@H]1NC(=O)[C@H](Cc2c[nH]c3ccccc23)NC(=O)[C@H](CC(=O)O)NC(=O)[C@H](Cc2cccc(O)c2)NC(=O)[C@H](Cc2ccccc2)NC(=O)CSC[C@@H](C(=O)N[C@@H](C)C(N)=O)NC(=O)[C@H](CO)NC(=O)[C@H](C(C)C)NC(=O)[C@H](CC(C)C)NC(=O)[C@H](CC(N)=O)NC(=O)[C@@H](C)NC(=O)[C@H](C)N(C)C(=O)[C@H](C(C)C)NC(=O)[C@H](Cc2ccc(-c3ccccc3)cc2)NC1=O` [Compound 1765] ({CH2CO}-F[mTyr]DWL[Bip]V[NMeA][dA]NLVSCA-NH2; thioether N-14), the IC50 is 0.04 µM.
Take `CC(C)C[C@H]1NC(=O)[C@H](C)N(C)C(=O)[C@H](C(C)C)NC(=O)[C@H](Cc2ccc(-c3ccccc3)cc2)NC(=O)[C@H](C(C)C)NC(=O)[C@H](Cc2c[nH]c3ccccc23)NC(=O)[C@H](CC(=O)O)NC(=O)[C@H](Cc2ccncc2)NC(=O)[C@H](Cc2ccc(CN)cc2)NC(=O)CSC[C@@H](C(N)=O)NC(=O)[C@H](CO)NC(=O)[C@H](C(C)C)NC(=O)[C@H](CC2CCCCC2)NC(=O)[C@H](CC(N)=O)NC1=O` [Compound 2242] ({CH2CO}-[Phe(4-CH2NH2)][4Pal]DWV[Bip]V[NMeA][dL]N[Cha]VSC-NH2; thioether N-14): the IC50 turned out to be 0.03 µM.
For `CCCC[C@@H]1NC(=O)[C@H](Cc2c[nH]c3ccccc23)NC(=O)[C@H](CC(=O)O)NC(=O)[C@H](Cc2ccc(OCC(=O)O)cc2)NC(=O)[C@H](C(C)O)NC(=O)CSC[C@@H](C(=O)N[C@@H](CC(N)=O)C(=O)O)NC(=O)[C@H](CO)NC(=O)[C@H](C(C)C)NC(=O)[C@H](CC(C)C)NC(=O)[C@H](CCN)NC(=O)[C@@H](CC(C)C)NC(=O)[C@H](C)N(C)C(=O)[C@H](C(C)CC)NC(=O)[C@H](Cc2ccc(-c3ccccc3)cc2)NC1=O` (stereo partly drawn) [Compound 2221] ({CH2CO}-[Thr(3ξ)]Y(Carboxymethyl)DW[Nle][Bip][Ile(3ξ)][NMeA][dL][Dab]LVSCN-OH; thioether N-14) the value was 0.06 µM; for `CC(C)C[C@@H]1NC(=O)[C@H](CCCNC(=N)N)NC(=O)[C@@H](CC(C)C)NC(=O)[C@H](C)N(C)C(=O)[C@H](CCCNC(N)=O)NC(=O)[C@H](Cc2ccc(-c3ccccc3)cc2)NC(=O)[C@H](C(C)C)NC(=O)[C@H](Cc2c[nH]c3ccccc23)NC(=O)[C@H](CC(=O)O)NC(=O)[C@H](Cc2ccc(O)cc2)NC(=O)[C@H](CC(N)=O)NC(=O)CSC[C@@H](C(=O)N[C@@H](CCC(=O)O)C(N)=O)NC(=O)[C@H](CO)NC(=O)[C@H](C(C)C)NC1=O` [Compound 1236] ({CH2CO}-NYDWV[Bip][Cit][NMeA][dL]RLVSCE-NH2; thioether N-14), 0.11 µM; for `CCC(C)[C@@H]1NC(=O)[C@H](Cc2ccc(-c3ccccc3)cc2)NC(=O)[C@H](CC(C)C)NC(=O)[C@H](Cc2c[nH]c3ccccc23)NC(=O)[C@H](CC(=O)O)NC(=O)[C@H](Cc2ccc(C(=O)O)cc2)NC(=O)[C@H](Cc2ccc(OCC(=O)O)cc2)NC(=O)CSC[C@@H](C(=O)N[C@@H](CC(N)=O)C(N)=O)NC(=O)[C@H](CO)NC(=O)[C@H](C(C)(C)O)NC(=O)[C@H](CC2CCCCC2)NC(=O)[C@H](CCN)NC(=O)[C@@H](CC(C)C)NC(=O)[C@H](C)N(C)C1=O` (stereo partly drawn) [Compound 1916] ({CH2CO}-Y(Carboxymethyl)[Phe(4-COOH)]DWL[Bip][Ile(3ξ)][NMeA][dL][Dab][Cha][Val(3-OH)]SCN-NH2; thioether N-14), 0.02 µM.
